Test results from paper PMC2931804 (Clinical cancer research : an official journal of the …, 2010).
Like-named read-outs stand apart in the source and are kept apart here.

[1] = DL3 800 mg twice daily × 3 + sLV5FU2, Any cycle, n = 3
[2] = DL3 1,000 mg once daily × 3 + sLV5FU2, 1st cycle, n = 3
[3] = DL3 1,000 mg once daily × 3 + sLV5FU2, Any cycle, n = 3
[4] = DL4 1,200 mg once daily × 3 + sLV5FU2, 1st cycle, n = 3
[5] = DL4 1,200 mg once daily × 3 + sLV5FU2, Any cycle, n = 3
[6] = DL5 1,400 mg once daily × 3 + sLV5FU2, 1st cycle, n = 3
[7] = DL5 1,400 mg once daily × 3 + sLV5FU2, Any cycle, n = 3
[8] = DL6 1,700 mg once daily × 3 + sLV5FU2, 1st cycle, n = 6
[9] = DL6 1,700 mg once daily × 3 + sLV5FU2, Any cycle, n = 6
[10] = DL7 2,000 mg once daily × 3 + sLV5FU2, 1st cycle, n = 3
[11] = DL7 2,000 mg once daily × 3 + sLV5FU2, Any cycle, n = 3

O=C(CCCCCCC(=O)Nc1ccccc1)NO [vorinostat, suberoylanilide hydroxamic acid]
Nausea, treatment-related, patients (G2/G3/G4) [1]: 0/0/0 | Neutropenia, treatment-related, patients (G2/G3/G4) [1]: 2/0/0 | Thrombocytopenia, treatment-related, patients (G2/G3/G4) [1]: 2/1/0 | VTE, treatment-related, patients (G2/G3/G4) [1]: 0/0/1 | Vomiting, treatment-related, patients (G2/G3/G4) [1]: 0/0/0 | Anemia, treatment-related, patients (G2/G3/G4) [2]: 1/0/0 | Anorexia, treatment-related, patients (G2/G3/G4) [2]: 0/0/0 | DVT/PE, treatment-related, patients (G2/G3/G4) [2]: 0/0/0 | Dehydration, treatment-related, patients (G2/G3/G4) [2]: 0/0/0 | Diarrhea, treatment-related, patients (G2/G3/G4) [2]: 0/0/0 | Fatigue, treatment-related, patients (G2/G3/G4) [2]: 1/0/0 | GI bleed, treatment-related, patients (G2/G3/G4) [2]: 0/0/0 | Hand and Foot, treatment-related, patients (G2/G3/G4) [2]: 0/0/0 | Infection, treatment-related, patients (G2/G3/G4) [2]: 0/0/0 | Mucositis, treatment-related, patients (G2/G3/G4) [2]: 0/0/0 | Nausea, treatment-related, patients (G2/G3/G4) [2]: 0/0/0 | Neutropenia, treatment-related, patients (G2/G3/G4) [2]: 0/0/0 | Thrombocytopenia, treatment-related, patients (G2/G3/G4) [2]: 0/0/0 | Vomiting, treatment-related, patients (G2/G3/G4) [2]: 0/0/0 | Weight Loss, treatment-related, patients (G2/G3/G4) [2]: 0/0/0 | Anemia, treatment-related, patients (G2/G3/G4) [3]: 1/0/0 | Anorexia, treatment-related, patients (G2/G3/G4) [3]: 0/0/0 | DVT/PE, treatment-related, patients (G2/G3/G4) [3]: 0/0/0 | Dehydration, treatment-related, patients (G2/G3/G4) [3]: 0/0/0 | Diarrhea, treatment-related, patients (G2/G3/G4) [3]: 0/0/0 | Fatigue, treatment-related, patients (G2/G3/G4) [3]: 2/0/0 | GI bleed, treatment-related, patients (G2/G3/G4) [3]: 0/0/0 | Hand and Foot, treatment-related, patients (G2/G3/G4) [3]: 0/0/0 | Infection, treatment-related, patients (G2/G3/G4) [3]: 0/0/0 | Mucositis, treatment-related, patients (G2/G3/G4) [3]: 1/0/0 | Nausea, treatment-related, patients (G2/G3/G4) [3]: 0/0/0 | Neutropenia, treatment-related, patients (G2/G3/G4) [3]: 0/0/0 | Thrombocytopenia, treatment-related, patients (G2/G3/G4) [3]: 0/0/0 | Vomiting, treatment-related, patients (G2/G3/G4) [3]: 0/0/0 | Weight Loss, treatment-related, patients (G2/G3/G4) [3]: 0/0/0 | Anemia, treatment-related, patients (G2/G3/G4) [4]: 0/0/0 | Anorexia, treatment-related, patients (G2/G3/G4) [4]: 0/0/0 | DVT/PE, treatment-related, patients (G2/G3/G4) [4]: 0/0/0 | Dehydration, treatment-related, patients (G2/G3/G4) [4]: 0/0/0 | Diarrhea, treatment-related, patients (G2/G3/G4) [4]: 0/0/0 | Fatigue, treatment-related, patients (G2/G3/G4) [4]: 2/0/0 | GI bleed, treatment-related, patients (G2/G3/G4) [4]: 0/0/0 | Hand and Foot, treatment-related, patients (G2/G3/G4) [4]: 0/0/0 | Infection, treatment-related, patients (G2/G3/G4) [4]: 0/0/0 | Mucositis, treatment-related, patients (G2/G3/G4) [4]: 0/0/0 | Nausea, treatment-related, patients (G2/G3/G4) [4]: 0/0/0 | Neutropenia, treatment-related, patients (G2/G3/G4) [4]: 0/0/0 | Thrombocytopenia, treatment-related, patients (G2/G3/G4) [4]: 0/0/0 | Vomiting, treatment-related, patients (G2/G3/G4) [4]: 1/0/0 | Weight Loss, treatment-related, patients (G2/G3/G4) [4]: 0/0/0 | Anemia, treatment-related, patients (G2/G3/G4) [5]: 0/0/0 | Anorexia, treatment-related, patients (G2/G3/G4) [5]: 1/0/0 | DVT/PE, treatment-related, patients (G2/G3/G4) [5]: 0/1/0 | Dehydration, treatment-related, patients (G2/G3/G4) [5]: 0/0/0 | Diarrhea, treatment-related, patients (G2/G3/G4) [5]: 0/1/0 | Fatigue, treatment-related, patients (G2/G3/G4) [5]: 2/0/0 | GI bleed, treatment-related, patients (G2/G3/G4) [5]: 0/0/0 | Hand and Foot, treatment-related, patients (G2/G3/G4) [5]: 0/0/0 | Infection, treatment-related, patients (G2/G3/G4) [5]: 0/0/0 | Mucositis, treatment-related, patients (G2/G3/G4) [5]: 0/0/0 | Nausea, treatment-related, patients (G2/G3/G4) [5]: 1/0/0 | Neutropenia, treatment-related, patients (G2/G3/G4) [5]: 0/0/0 | Thrombocytopenia, treatment-related, patients (G2/G3/G4) [5]: 0/0/0 | Vomiting, treatment-related, patients (G2/G3/G4) [5]: 2/0/0 | Weight Loss, treatment-related, patients (G2/G3/G4) [5]: 1/0/0 | Anemia, treatment-related, patients (G2/G3/G4) [6]: 0/0/0 | Anorexia, treatment-related, patients (G2/G3/G4) [6]: 0/0/0 | DVT/PE, treatment-related, patients (G2/G3/G4) [6]: 0/0/0 | Dehydration, treatment-related, patients (G2/G3/G4) [6]: 0/0/0 | Diarrhea, treatment-related, patients (G2/G3/G4) [6]: 0/0/0 | Fatigue, treatment-related, patients (G2/G3/G4) [6]: 0/0/0 | GI bleed, treatment-related, patients (G2/G3/G4) [6]: 0/0/0 | Hand and Foot, treatment-related, patients (G2/G3/G4) [6]: 0/0/0 | Infection, treatment-related, patients (G2/G3/G4) [6]: 0/0/0 | Mucositis, treatment-related, patients (G2/G3/G4) [6]: 0/0/0 | Nausea, treatment-related, patients (G2/G3/G4) [6]: 0/0/0 | Neutropenia, treatment-related, patients (G2/G3/G4) [6]: 1/0/0 | Thrombocytopenia, treatment-related, patients (G2/G3/G4) [6]: 0/0/0 | Vomiting, treatment-related, patients (G2/G3/G4) [6]: 0/0/0 | Weight Loss, treatment-related, patients (G2/G3/G4) [6]: 0/0/0 | Anemia, treatment-related, patients (G2/G3/G4) [7]: 1/0/0 | Anorexia, treatment-related, patients (G2/G3/G4) [7]: 1/0/0 | DVT/PE, treatment-related, patients (G2/G3/G4) [7]: 0/0/0 | Dehydration, treatment-related, patients (G2/G3/G4) [7]: 0/0/0 | Diarrhea, treatment-related, patients (G2/G3/G4) [7]: 2/0/0 | Fatigue, treatment-related, patients (G2/G3/G4) [7]: 2/0/0 | GI bleed, treatment-related, patients (G2/G3/G4) [7]: 0/0/0 | Hand and Foot, treatment-related, patients (G2/G3/G4) [7]: 0/0/0 | Infection, treatment-related, patients (G2/G3/G4) [7]: 0/0/0 | Mucositis, treatment-related, patients (G2/G3/G4) [7]: 0/0/0 | Nausea, treatment-related, patients (G2/G3/G4) [7]: 0/0/0 | Neutropenia, treatment-related, patients (G2/G3/G4) [7]: 0/1/0 | Thrombocytopenia, treatment-related, patients (G2/G3/G4) [7]: 0/0/0 | Vomiting, treatment-related, patients (G2/G3/G4) [7]: 1/0/0 | Weight Loss, treatment-related, patients (G2/G3/G4) [7]: 1/0/0 | Anemia, treatment-related, patients (G2/G3/G4) [8]: 0/0/0 | Anorexia, treatment-related, patients (G2/G3/G4) [8]: 2/0/0 | DVT/PE, treatment-related, patients (G2/G3/G4) [8]: 0/0/0 | Dehydration, treatment-related, patients (G2/G3/G4) [8]: 0/0/0 | Diarrhea, treatment-related, patients (G2/G3/G4) [8]: 0/1/0 | Fatigue, treatment-related, patients (G2/G3/G4) [8]: 3/0/0 | GI bleed, treatment-related, patients (G2/G3/G4) [8]: 0/0/0 | Hand and Foot, treatment-related, patients (G2/G3/G4) [8]: 0/0/0 | Infection, treatment-related, patients (G2/G3/G4) [8]: 0/0/0 | Mucositis, treatment-related, patients (G2/G3/G4) [8]: 0/0/0 | Nausea, treatment-related, patients (G2/G3/G4) [8]: 2/0/0 | Neutropenia, treatment-related, patients (G2/G3/G4) [8]: 0/0/0 | Thrombocytopenia, treatment-related, patients (G2/G3/G4) [8]: 0/0/0 | Vomiting, treatment-related, patients (G2/G3/G4) [8]: 0/0/0 | Weight Loss, treatment-related, patients (G2/G3/G4) [8]: 0/0/0 | Anemia, treatment-related, patients (G2/G3/G4) [9]: 2/1/0 | DVT/PE, treatment-related, patients (G2/G3/G4) [9]: 0/1/0 | Dehydration, treatment-related, patients (G2/G3/G4) [9]: 2/1/0 | Diarrhea, treatment-related, patients (G2/G3/G4) [9]: 3/2/0 | Fatigue, treatment-related, patients (G2/G3/G4) [9]: 6/0/0 | GI bleed, treatment-related, patients (G2/G3/G4) [9]: 0/0/0 | Hand and Foot, treatment-related, patients (G2/G3/G4) [9]: 0/0/0 | Infection, treatment-related, patients (G2/G3/G4) [9]: 0/2/0 | Mucositis, treatment-related, patients (G2/G3/G4) [9]: 1/1/0 | Neutropenia, treatment-related, patients (G2/G3/G4) [9]: 1/0/0 | Thrombocytopenia, treatment-related, patients (G2/G3/G4) [9]: 1/0/0 | Vomiting, treatment-related, patients (G2/G3/G4) [9]: 3/3/0 | Weight Loss, treatment-related, patients (G2/G3/G4) [9]: 0/0/0 | Patients with DLT (DL6 1,700 mg once daily × 3 + sLV5FU2, six patients): None | Anemia, treatment-related, patients (G2/G3/G4) [10]: 0/2/0 | Anorexia, treatment-related, patients (G2/G3/G4) [10]: 1/0/0 | DVT/PE, treatment-related, patients (G2/G3/G4) [10]: 0/0/0 | Dehydration, treatment-related, patients (G2/G3/G4) [10]: 1/0/0 | Diarrhea, treatment-related, patients (G2/G3/G4) [10]: 0/0/0 | GI bleed, treatment-related, patients (G2/G3/G4) [10]: 0/1/0 | Infection, treatment-related, patients (G2/G3/G4) [10]: 0/0/0 | Mucositis, treatment-related, patients (G2/G3/G4) [10]: 0/0/0 | Nausea, treatment-related, patients (G2/G3/G4) [10]: 1/0/0 | Neutropenia, treatment-related, patients (G2/G3/G4) [10]: 1/0/0 | Thrombocytopenia, treatment-related, patients (G2/G3/G4) [10]: 0/1/0 | Vomiting, treatment-related, patients (G2/G3/G4) [10]: 0/0/0 | Weight Loss, treatment-related, patients (G2/G3/G4) [10]: 0/0/0 | Anemia, treatment-related, patients (G2/G3/G4) [11]: 0/2/0 | Anorexia, treatment-related, patients (G2/G3/G4) [11]: 2/0/0 | DVT/PE, treatment-related, patients (G2/G3/G4) [11]: 0/0/0 | Dehydration, treatment-related, patients (G2/G3/G4) [11]: 1/1/0 | Diarrhea, treatment-related, patients (G2/G3/G4) [11]: 0/0/0 | Fatigue, treatment-related, patients (G2/G3/G4) [11]: 0/2/0 | GI bleed, treatment-related, patients (G2/G3/G4) [11]: 0/1/0 | Hand and Foot, treatment-related, patients (G2/G3/G4) [11]: 0/1/0 | Infection, treatment-related, patients (G2/G3/G4) [11]: 0/0/0 | Mucositis, treatment-related, patients (G2/G3/G4) [11]: 0/0/0 | Nausea, treatment-related, patients (G2/G3/G4) [11]: 2/0/0 | Neutropenia, treatment-related, patients (G2/G3/G4) [11]: 1/0/0 | Thrombocytopenia, treatment-related, patients (G2/G3/G4) [11]: 0/1/0 | Vomiting, treatment-related, patients (G2/G3/G4) [11]: 0/0/0 | Weight Loss, treatment-related, patients (G2/G3/G4) [11]: 0/0/0 | DLT (once-daily dose levels 1 through 6, three patients each): without any DLT | MTD of vorinostat, once-daily schedule (orally once daily × 3 days every 2 weeks, in combination with sLV5FU2): 1,700 mg | MTD of vorinostat, twice-daily schedule (orally twice daily × 3 days every 2 weeks, in combination with sLV5FU2): 600 mg
